What all share (type): functional
Assay [1] has as its system Candida. As to the kind of experiment: Antifungal activity against Candida 6.
Assay [2] has as its system Candida. Nature of the assay: Antifungal activity against Candida 51.
The test system of another assay is Aspergillus flavus. Nature of the assay: Antifungal activity against Aspergillus flavus.
In a further assay the test system is Cryptococcus neoformans. Nature of the assay: Antifungal activity against Cryptococcus neoformans.
The next assay has as its system Aspergillus niger. As to the kind of experiment: Antifungal activity against Aspergillus niger.
The test system of a further assay is Enterococcus faecalis. As to the kind of experiment: Antibacterial activity against Streptococcus faecalis.
The next assay has as its system Escherichia coli. As to the kind of experiment: Antibacterial activity against Escherichia coli.
The subject of the next assay is Bacillus subtilis. Nature of the assay: Antibacterial activity against Bacillus subtilis.
For a further assay, the system named is Klebsiella pneumoniae. As to the kind of experiment: Antibacterial activity against Klebsiella pneumoniae.
The next assay has as its system Pseudomonas aeruginosa. As to the kind of experiment: Antibacterial activity against Pseudomonas aeruginosa.

Data on eight compounds can be found in ChEMBL document CHEMBL1146381, “Synthesis, stereochemistry and antimicrobial evaluation of t(3)-benzyl-r(2),c(6)-diarylpiperidin-4-one and its derivatives” (2007).

≈ marks a conversion by molar mass, not a printed value.

`O/N=C1\CC(c2ccccc2)NC(c2ccccc2)C1Cc1ccccc1` (stereo not drawn): the minimum inhibitory concentration (MIC) – broadly, the least concentration at which growth counts as inhibited – in the assay on Candida [1] turned out to be 50 mg/L (≈ 140 µM); in the assay on Candida [2], 12.5 mg/L (≈ 35.1 µM); with Aspergillus flavus, 50 mg/L (≈ 140 µM); in the assay with Cryptococcus neoformans, 25 mg/L (≈ 70.1 µM); in the assay with Aspergillus niger, 100 mg/L (≈ 281 µM); with Enterococcus faecalis it was 25 mg/L (≈ 70.1 µM). For the same compound, the MIC worked out at 12.5 mg/L (≈ 35.1 µM) against Escherichia coli, 25 mg/L (≈ 70.1 µM) in the assay on Bacillus subtilis, 12.5 mg/L (≈ 35.1 µM) in the assay with Klebsiella pneumoniae and 25 mg/L (≈ 70.1 µM) in the assay with Pseudomonas aeruginosa.

As for `CN[C@@H]1[C@H](O[C@H]2[C@H](O[C@H]3[C@H](O)[C@@H](O)[C@H](N=C(N)N)[C@@H](O)[C@@H]3N=C(N)N)O[C@@H](C)[C@]2(O)C=O)O[C@@H](CO)[C@H](O)[C@H]1O` [STREPTOMYCIN], the MIC in the assay with Enterococcus faecalis worked out at 50 mg/L (≈ 86 µM); in the assay on Escherichia coli, 12.5 mg/L (≈ 21.5 µM); in the assay on Bacillus subtilis it was 12.5 mg/L (≈ 21.5 µM); against Klebsiella pneumoniae, 25 mg/L (≈ 43 µM); with Pseudomonas aeruginosa, 25 mg/L (≈ 43 µM).

With `O/N=C1\CC(c2ccco2)NC(c2ccco2)C1Cc1ccccc1` (stereo not drawn), the MIC in the assay on Candida [1] came to 25 mg/L (≈ 74.3 µM); in the assay on Candida [2] it was 12.5 mg/L (≈ 37.2 µM); with Aspergillus flavus it was 25 mg/L (≈ 74.3 µM); against Cryptococcus neoformans it was 6.25 mg/L (≈ 18.6 µM); in the assay on Aspergillus niger it was 6.25 mg/L (≈ 18.6 µM); with Enterococcus faecalis it was 12.5 mg/L (≈ 37.2 µM). The MIC in the assay on Escherichia coli worked out at 12.5 mg/L (≈ 37.2 µM); in the assay with Bacillus subtilis, 25 mg/L (≈ 74.3 µM); against Klebsiella pneumoniae, 6.25 mg/L (≈ 18.6 µM); against Pseudomonas aeruginosa, 12.5 mg/L (≈ 37.2 µM).

Turning to `O=C1CC(c2ccccc2)NC(c2ccccc2)C1Cc1ccccc1` (stereo not drawn), the MIC was 50 mg/L (≈ 146 µM) with Candida [1]; 50 mg/L (≈ 146 µM) with Candida [2]; 50 mg/L (≈ 146 µM) with Aspergillus flavus; 100 mg/L (≈ 293 µM) in the assay on Aspergillus niger; 50 mg/L (≈ 146 µM) against Enterococcus faecalis; 12.5 mg/L (≈ 36.6 µM) with Escherichia coli. The values for the MIC against Bacillus subtilis and in the assay with Klebsiella pneumoniae were 12.5 mg/L (≈ 36.6 µM) and 100 mg/L (≈ 293 µM), respectively.

In the case of `O=CN1C(c2ccccc2)C/C(=N\O)C(Cc2ccccc2)C1c1ccccc1` (stereo not drawn), the MIC was 12.5 mg/L (≈ 32.5 µM) in the assay on Candida [1]; 12.5 mg/L (≈ 32.5 µM) against Candida [2]; 12.5 mg/L (≈ 32.5 µM) in the assay on Aspergillus flavus; 6.25 mg/L (≈ 16.3 µM) against Cryptococcus neoformans; 25 mg/L (≈ 65 µM) with Aspergillus niger; 25 mg/L (≈ 65 µM) in the assay with Enterococcus faecalis. The MIC came out at 25 mg/L (≈ 65 µM) in the assay on Escherichia coli, 25 mg/L (≈ 65 µM) against Bacillus subtilis, 6.25 mg/L (≈ 16.3 µM) in the assay with Klebsiella pneumoniae and 50 mg/L (≈ 130 µM) with Pseudomonas aeruginosa.

Take `C[C@@H]1[C@H](O)[C@@H](C)/C=C/C=C/C=C/C=C/C=C/C=C/C=C/[C@H](O[C@@H]2O[C@H](C)[C@@H](O)[C@H](N)[C@@H]2O)C[C@@H]2O[C@](O)(C[C@@H](O)C[C@@H](O)[C@H](O)CC[C@@H](O)C[C@@H](O)CC(=O)O[C@H]1C)C[C@H](O)[C@H]2C(=O)O` [AMPHOTERICIN B]: the MIC in the assay with Candida [1] was 25 mg/L (≈ 27.1 µM); with Candida [2], 25 mg/L (≈ 27.1 µM); in the assay on Aspergillus flavus, 50 mg/L (≈ 54.1 µM); against Cryptococcus neoformans, 25 mg/L (≈ 27.1 µM); against Aspergillus niger, 50 mg/L (≈ 54.1 µM).

As for `O=CN1C(c2ccccc2)CC(=O)C(Cc2ccccc2)C1c1ccccc1` (stereo not drawn), the MIC in the assay with Candida [1] was 25 mg/L (≈ 67.7 µM); against Candida [2] it was 12.5 mg/L (≈ 33.8 µM); with Aspergillus flavus it was 25 mg/L (≈ 67.7 µM); in the assay on Cryptococcus neoformans it was 12.5 mg/L (≈ 33.8 µM); with Aspergillus niger it was 50 mg/L (≈ 135 µM); in the assay on Enterococcus faecalis, 25 mg/L (≈ 67.7 µM). For the same compound, the MIC with Escherichia coli was 25 mg/L (≈ 67.7 µM); with Bacillus subtilis it was 25 mg/L (≈ 67.7 µM); against Klebsiella pneumoniae, 6.25 mg/L (≈ 16.9 µM); against Pseudomonas aeruginosa, 12.5 mg/L (≈ 33.8 µM).

For the compound `O=C1CC(c2ccco2)NC(c2ccco2)C1Cc1ccccc1` (stereo not drawn), the MIC against Candida [1] is 25 mg/L (≈ 77.8 µM); in the assay on Candida [2], 25 mg/L (≈ 77.8 µM); with Aspergillus flavus, 50 mg/L (≈ 156 µM); in the assay on Cryptococcus neoformans, 25 mg/L (≈ 77.8 µM); with Aspergillus niger it was 50 mg/L (≈ 156 µM); in the assay on Enterococcus faecalis, 12.5 mg/L (≈ 38.9 µM). For the same compound, the MIC was 12.5 mg/L (≈ 38.9 µM) in the assay on Escherichia coli, 50 mg/L (≈ 156 µM) in the assay on Bacillus subtilis, 12.5 mg/L (≈ 38.9 µM) against Klebsiella pneumoniae and 25 mg/L (≈ 77.8 µM) against Pseudomonas aeruginosa.
